From patent US11542235B2, “Herbicidal 3-azaspiro[5.5] undecane-8, 10-dione compounds” (SYNGENTA PARTICIPATIONS AG, priority 2018, dated 2023)

Columns and labels:
Type in all cases: in vivo
Setaria faberi (SETFA) = assay: Glasshouse herbicidal test, pre- and post-emergence, Setaria faberi; conditions: 250 g/h, evaluated after 13 days, five point scale; for percentage damage caused to the plant, SETFA POST: post-emergence; for percentage damage caused to the plant, SETFA PRE: pre-emergence
Experimental: (§1) Seeds of a variety of test species are sown in standard soil in pots (Lolium perenne (LOLPE), Setaria faberi (SETFA), Alopecurus myosuroides (ALOMY), Echinochloa crus-galli (ECHCG), Avena fatua (AVEFA)). After cultivation for one day (pre-emergence) or after 8 days cultivation (post-emergence) under controlled conditions in a glasshouse (at 24/16° C., day/night; 14 hours light; 65% humidity), the plants are sprayed with an aqueous spray solution derived from the formulation of the technical active ingredient in acetone/water (50:50) solution containing 0.5% Tween 20 (polyoxyethelyene sorbitan monolaurate, CAS RN 9005-64-5). Compounds are applied at […]. The test plants are then grown in a glasshouse under controlled conditions in a glasshouse (at 24/16° C., day/night; 14 hours light; 65% humidity) and watered twice daily. After 13 days for pre and post-emergence, the test is evaluated for the percentage damage caused to the plant. The biological activities are shown in the following table on a five point scale (5=80-100%; 4=60-79%; 3=40-59%; 2=20-39%; 1=0-19%).

[1] = system: Alopecurus myosuroides (ALOMY); assay: Glasshouse herbicidal test, pre- and post-emergence, Alopecurus myosuroides; conditions: 250 g/h, evaluated after 13 days, five point scale; for percentage damage caused to the plant, ALOMY POST: post-emergence; for percentage damage caused to the plant, ALOMY PRE: pre-emergence
Experimental: as §1

[2] = system: Echinochloa crus-galli (ECHCG); assay: Glasshouse herbicidal test, pre- and post-emergence, Echinochloa crus-galli; conditions: 250 g/h, evaluated after 13 days, five point scale; for percentage damage caused to the plant, ECHCG POST: post-emergence; for percentage damage caused to the plant, ECHCG PRE: pre-emergence
Experimental: as §1

Avena fatua (AVEFA) = assay: Glasshouse herbicidal test, pre- and post-emergence, Avena fatua; conditions: 250 g/h, evaluated after 13 days, five point scale; for percentage damage caused to the plant, AVEFA POST: post-emergence; for percentage damage caused to the plant, AVEFA PRE: pre-emergence
Experimental: as §1

Lolium perenne (LOLPE) = assay: Glasshouse herbicidal test, pre- and post-emergence, Lolium perenne; conditions: 250 g/h, evaluated after 13 days, five point scale; for percentage damage caused to the plant, LOLPE POST: post-emergence; for percentage damage caused to the plant, LOLPE PRE: pre-emergence
Experimental: as §1

SMILES	percentage damage caused to the plant, SETFA POST (Setaria faberi (SETFA))	percentage damage caused to the plant, SETFA PRE (Setaria faberi (SETFA))	percentage damage caused to the plant, ALOMY POST [1]	percentage damage caused to the plant, ALOMY PRE [1]	percentage damage caused to the plant, ECHCG POST [2]	percentage damage caused to the plant, ECHCG PRE [2]	percentage damage caused to the plant, AVEFA POST (Avena fatua (AVEFA))	percentage damage caused to the plant, AVEFA PRE (Avena fatua (AVEFA))	percentage damage caused to the plant, LOLPE POST (Lolium perenne (LOLPE))	percentage damage caused to the plant, LOLPE PRE (Lolium perenne (LOLPE))
CC#Cc1cc(C)c(C2C(=O)CC3(CCN(C(C)=O)CC3)CC2=O)c(OC)c1 [Compound A15]	5 (5=80-100%)	5 (5=80-100%)	5 (5=80-100%)	5 (5=80-100%)	5 (5=80-100%)	5 (5=80-100%)	5 (5=80-100%)	5 (5=80-100%)	5 (5=80-100%)	5 (5=80-100%)
CC#Cc1cc(C)c(C2=C(OC(=O)C(C)C)CC3(CCN(C(C)=O)CC3)CC2=O)c(C)c1 [Compound P12]	5 (5=80-100%)	5 (5=80-100%)	5 (5=80-100%)	5 (5=80-100%)	5 (5=80-100%)	5 (5=80-100%)	5 (5=80-100%)	5 (5=80-100%)	5 (5=80-100%)	5 (5=80-100%)
CC#Cc1cc(C)c(C2C(=O)CC3(CCN(C(=O)C(F)(F)F)CC3)CC2=O)c(C)c1 [Compound A5]	5 (5=80-100%)	5 (5=80-100%)	5 (5=80-100%)	5 (5=80-100%)	5 (5=80-100%)	5 (5=80-100%)	5 (5=80-100%)	5 (5=80-100%)	5 (5=80-100%)	5 (5=80-100%)
CC#Cc1cc(C)c(C2=C(OC(=O)C(C)(C)C)CC3(CCN(OC)CC3)CC2=O)c(C)c1 [Compound P1]	5 (5=80-100%)	5 (5=80-100%)	5 (5=80-100%)	5 (5=80-100%)	5 (5=80-100%)	5 (5=80-100%)	5 (5=80-100%)	5 (5=80-100%)	5 (5=80-100%)	5 (5=80-100%)
CC#Cc1cc(C)c(C2C(=O)CC3(CCN(C(=O)C(F)(F)C(F)(F)F)CC3)CC2=O)c(C)c1 [Compound A26]	5 (5=80-100%)	5 (5=80-100%)	5 (5=80-100%)	5 (5=80-100%)	5 (5=80-100%)	5 (5=80-100%)	5 (5=80-100%)	5 (5=80-100%)	5 (5=80-100%)	5 (5=80-100%)
CC#Cc1cc(C)c(C2C(=O)CC3(CCN(C(=O)C(C)F)CC3)CC2=O)c(C)c1 (centres unmarked) [Compound A21]	5 (5=80-100%)	5 (5=80-100%)	5 (5=80-100%)	5 (5=80-100%)	5 (5=80-100%)	5 (5=80-100%)	5 (5=80-100%)	5 (5=80-100%)	5 (5=80-100%)	5 (5=80-100%)
CC#Cc1cc(C)c(C2C(=O)CC3(CCN(C(=O)C(C)(Cl)Cl)CC3)CC2=O)c(C)c1 [Compound A27]	5 (5=80-100%)	5 (5=80-100%)	5 (5=80-100%)	5 (5=80-100%)	5 (5=80-100%)	5 (5=80-100%)	5 (5=80-100%)	5 (5=80-100%)	5 (5=80-100%)	5 (5=80-100%)
CC#Cc1cc(C)c(C2C(=O)CC3(CCN(C(=O)CC(F)(F)F)CC3)CC2=O)c(C)c1 [Compound A25]	5 (5=80-100%)	5 (5=80-100%)	5 (5=80-100%)	5 (5=80-100%)	5 (5=80-100%)	5 (5=80-100%)	5 (5=80-100%)	5 (5=80-100%)	5 (5=80-100%)	5 (5=80-100%)
CC#Cc1cc(C)c(C2=C(OC(C)=O)CC3(CCN(OC)CC3)CC2=O)c(C)c1 [Compound P2]	5 (5=80-100%)	5 (5=80-100%)	5 (5=80-100%)	5 (5=80-100%)	5 (5=80-100%)	5 (5=80-100%)	5 (5=80-100%)	5 (5=80-100%)	5 (5=80-100%)	5 (5=80-100%)
CC#Cc1cc(C)c(C2=C(OS(=O)(=O)CC)CC3(CCN(C(C)=O)CC3)CC2=O)c(C)c1 [Compound P13]	5 (5=80-100%)	5 (5=80-100%)	5 (5=80-100%)	4 (4=60-79%)	5 (5=80-100%)	4 (4=60-79%)	5 (5=80-100%)	5 (5=80-100%)	5 (5=80-100%)	5 (5=80-100%)
CC#Cc1cc(C)c(C2=C(OC(=O)C(C)C)CC3(CCN(C(=O)C(C)C)CC3)CC2=O)c(C)c1 [Compound P7]	5 (5=80-100%)	5 (5=80-100%)	5 (5=80-100%)	5 (5=80-100%)	5 (5=80-100%)	5 (5=80-100%)	5 (5=80-100%)	5 (5=80-100%)	5 (5=80-100%)	5 (5=80-100%)
CC#Cc1cc(C)c(C2C(=O)CC3(CCN(C(=O)C(C)C)CC3)CC2=O)c(C)c1 [Compound A11]	5 (5=80-100%)	5 (5=80-100%)	5 (5=80-100%)	5 (5=80-100%)	5 (5=80-100%)	5 (5=80-100%)	5 (5=80-100%)	5 (5=80-100%)	5 (5=80-100%)	5 (5=80-100%)
CC#Cc1cc(C)c(C2C(=O)CC3(CCN(C(=O)C(C)(C)F)CC3)CC2=O)c(C)c1 [Compound A23]	5 (5=80-100%)	5 (5=80-100%)	5 (5=80-100%)	5 (5=80-100%)	5 (5=80-100%)	5 (5=80-100%)	5 (5=80-100%)	5 (5=80-100%)	5 (5=80-100%)	5 (5=80-100%)
CC#Cc1cc(C)c(C2=C(OC(=O)C(C)(C)C)CC3(CCN(C(C)=O)CC3)CC2=O)c(C)c1 [Compound P11]	5 (5=80-100%)	5 (5=80-100%)	5 (5=80-100%)	5 (5=80-100%)	5 (5=80-100%)	5 (5=80-100%)	5 (5=80-100%)	5 (5=80-100%)	5 (5=80-100%)	5 (5=80-100%)
